This series is described as follows: in vitro. As to conditions: human, hela cells, % viability.

As a reminder, the viability is a read-out of living cells in per cent, often relative to untreated cells. With `Cn1ncnc1COc1ccc(S(=O)(=O)NC2CCCC2)cc1` [CBK306305], the viability at 28.5 h, 10 µM was 107%. For `COc1ccccc1-c1c(O)n[nH]c1C(C)C` [CBK075133], the viability at 28.5 h, 10 µM came out at 111%. For `CC(=O)c1ccc(-c2nccnc2NCc2ccc(C(F)(F)F)cc2)s1` [CBK037983], the viability at 28.5 h, 10 µM amounted to 99.2%. As for `Cn1ccc(CNCc2c(Br)cc(F)c(F)c2N2CCCCC2)n1` [CBK304763], the figure is 105%. As for `Cn1nc(C(F)(F)F)cc1C1CCCCCN1S(C)(=O)=O` (stereo not drawn) [CBK284673], the viability at 28.5 h, 10 µM was found to be 101%. The result for `COc1ccc2c(c1)C(=O)CC1(CCN(C(=O)/C=C/c3ccc(C)cc3)CC1)O2` [CBK156438] reads 98.3%; that for `COc1ccc(-c2nc3cc(NC(=O)C(c4ccccc4)c4ccccc4)ccc3o2)cc1` [CBK264980], 113%. Consider `Cc1ccc(NC(=O)c2c[nH]c(=O)[nH]c2=O)cc1` [CBK113246], for which the viability at 28.5 h, 10 µM was 95.7%. On to `CNC(=O)N(O)C1N(NC(=O)Nc2ccccc2)C(=S)SC1(C)C` (stereo not drawn) [CBK261005], for which the viability at 28.5 h, 10 µM is 94.9%. As for `CCCc1nnc(NC(=O)CN2CCc3c(c(CO)nn3C)C2)s1` [CBK307172], the figure is 98.4%.

Consider `CC(C)(C)OC(=O)NCCc1ccc(Nc2cc(-c3cc4ccccc4s3)ncn2)cc1` [CBK090959], for which the viability at 28.5 h, 10 µM stood at 94.3%. The result for `NC(=S)c1c(Cl)cc(C(F)(F)F)cc1Cl` [CBK011349] reads 105%; that for `CCN(CC)CCNC(=O)c1cc(O)nc2ccccc12` [CBK269261], 99.6%; that for `CC(=O)Nc1ccccc1NC(=O)COc1ccc(Br)cc1C` [CBK265072], 103%. In the case of `CC1(C)CC(NC(=O)C23CCC(C)(c4nc5ccccc5nc42)C3(C)C)CC(C)(C)N1` (stereo not drawn) [CBK266559], the viability at 28.5 h, 10 µM stood at 99.3%.

Turning to `O=C(Cn1c(=O)n(Cc2cccs2)c2ncccc21)NCC1CC1` [CBK283899], the viability at 28.5 h, 10 µM came to 89.3%. Take `CCN(CC(=O)NC(C)(C)C)S(=O)(=O)c1cccc(C#N)c1` [CBK306087]: the viability at 28.5 h, 10 µM was determined as 114%. Consider `COc1ccc(OCC(O)CN2CCN(c3ccccn3)CC2)cc1` (stereo not drawn) [CBK278239C], for which the viability at 28.5 h, 10 µM is 81.8%. Regarding `Cc1noc(C)c1CCC(=O)N1CC[C@H]2NC(=O)c3ccccc3OCCCCC[C@H]2C1` [CBK292036], the viability at 28.5 h, 10 µM was found to be 96.5%. Turning to `Cc1cc(C)nc(NC(=O)OCCc2cccnc2)c1` [CBK138234], the viability at 28.5 h, 10 µM amounted to 95.1%. The result for `Cc1ccc(S(=O)(=O)NCC(=O)Nc2cnc(-c3cccc(C)c3)c(-c3ccc(N)cc3)n2)cc1` [CBK037600] reads 83.5%. Regarding `O=C(c1csc(-c2ccccc2)n1)N1CCn2nc(C3CC3)cc2C1` [CBK304676], the viability at 28.5 h, 10 µM was 95.9%. On to `CC(C)OC(=O)c1cc2c(ccn2-c2ccc(F)cc2)n1CCC#N` [CBK123921], for which the viability at 28.5 h, 10 µM came to 95%. In the case of `O=C(NC1CCc2ccccc21)c1cnc(-c2ccc(Cl)cc2)c(-c2ccc(O)cc2)c1` (stereo not drawn) [CBK036629], the viability at 28.5 h, 10 µM came to 91%.

Take `OCCN(CCO)Cc1ccc(Cl)c(Cl)c1` [CBK261919]: the viability at 28.5 h, 10 µM came to 88.1%. The result for `O=C(CC1CCN(Cc2ccccn2)CC1)Nc1ccc(OC2CCCC2)cc1` [CBK285960] reads 104%; that for `CCOC(=O)c1nc(C2CCN(c3cccc(F)c3C#N)CC2)n[nH]1` [CBK304711], 119%.

`O=C(Nc1ccc2oc(-c3cccnc3)nc2c1)c1cccc(-c2cc3ccccc3oc2=O)c1` [CBK268612]: the viability at 28.5 h, 10 µM is 89.3%. With `CC(C)(C)OC(=O)NCCc1ccc(Nc2cc(-c3ccsc3)ncn2)cc1` [CBK090958], the viability at 28.5 h, 10 µM was determined as 115%. For the compound `Nc1ncc(-c2cccc3ccccc23)nc1N1CCC[C@@H]1CO` [CBK063517], the viability at 28.5 h, 10 µM stood at 94.1%. Regarding `COC(=O)c1c(NC(=S)Nn2cnnc2)sc2c1CCC(C)C2` (stereo not drawn) [CBK266942], the viability at 28.5 h, 10 µM was 91.6%. As for `CC(=O)N1CCC(C(=O)NC(=O)NCCOc2ccccc2Cl)CC1` [CBK034842], the figure is 97.9%; as for `Clc1ccc(OCC2CCN(Cc3c[nH]cn3)CC2)cc1` [CBK281543], 82.7%. As for `Cc1cc(C)n(CCCC(=O)N2CCC3(CC2)CC(=O)N(C)C3)n1` [CBK306905], the figure is 90.5%; as for `Cc1ccc(C(C)C)c(OCC(=O)N2CCN(Cc3nc4cc([N+](=O)[O-])ccc4n3C)CC2)c1` [CBK268519], 106%; as for `O=C(c1ccco1)N1CCN(c2ncccn2)CC1` [CBK144524], 111%. The result for `c1ccc(-c2nc3ccc(Oc4ccc5nc(-c6ccccn6)c(-c6ccccn6)nc5c4)cc3nc2-c2ccccn2)nc1` [CBK261964] reads 99.6%. `O=C(CS(=O)(=O)c1ccccc1)Nc1ccc(OCc2ccccc2)cc1` [CBK269421]: the viability at 28.5 h, 10 µM turned out to be 98.4%.

Regarding `CSc1nnc(CC2CCN(C(=O)c3cccc(N)c3)CC2)n1C` [CBK307339], the viability at 28.5 h, 10 µM was determined as 77.8%. Regarding `CC(C)NC(=O)c1sc2ccccc2c1C1CCN(C(=O)COc2ccccc2)C1` (stereo not drawn) [CBK285875], the viability at 28.5 h, 10 µM stood at 113%. For `N#Cc1c(NC(=O)CCn2cnnn2)sc2c1CCC2` [CBK270041], the viability at 28.5 h, 10 µM was 93.5%. As to `COC(=O)CSc1nnc(COc2ccc3c(c2)OCO3)n1-c1ccccc1` [CBK266139], the viability at 28.5 h, 10 µM came out at 107%.

As to `COc1ccc(C)cc1NC(=S)NCc1cnn(C)c1` [CBK267025], the viability at 28.5 h, 10 µM stood at 106%. For `COc1ccc(/C=N/Nc2ccc([N+](=O)[O-])cc2)c(C(=O)O)c1OC` [CBK261984], the viability at 28.5 h, 10 µM worked out at 90.5%. As for `NC(CC(=O)O)c1ccc(OCCc2ccccc2)cc1` (stereo not drawn) [CBK287053], the figure is 91.6%; as for `O=C(Nc1cccnc1)N1CCCCC1CO` (stereo not drawn) [CBK155990], 96.9%. Take `O=C(NC(=O)N1CCOCC1)c1csnn1` [CBK005561]: the viability at 28.5 h, 10 µM was 86.4%. With `O=c1[nH]nc2c(SC3CCCCC3)nccn12` [CBK288471], the viability at 28.5 h, 10 µM came out at 69.4%.

With `CC(=C\C(=O)O)/C(=C/c1ccc2ccccc2n1)C(=O)O` [CBK278294N], the viability at 28.5 h, 10 µM amounted to 87.7%. The result for `N#Cc1ccc(Cn2nc(NC(=O)c3ccco3)c3ccccc32)cc1` [CBK048260] reads 91.8%. As for `O=C(c1ccc2ncccc2c1)N1CCN(C(=O)c2ccco2)CC1` [CBK144461], the viability at 28.5 h, 10 µM amounted to 94%.

With `Cc1noc(C)c1CC(=O)NC(C)c1nc2ccccc2s1` (stereo not drawn) [CBK281467], the viability at 28.5 h, 10 µM turned out to be 107%. `CC(NC(=O)c1ccccc1Cn1cncn1)C1CC2CCC1C2` (stereo not drawn) [CBK281654]: the viability at 28.5 h, 10 µM was found to be 85.8%. `CCn1c(C)nc2cc(NC(=O)Cn3cccn3)ccc21` [CBK281828]: the viability at 28.5 h, 10 µM was determined as 89.5%. Regarding `Nc1c(C(=S)c2cccs2)oc2c1C(c1ccccc1)CC(=O)N2` (stereo not drawn) [CBK020690], the viability at 28.5 h, 10 µM turned out to be 42.2%. As for `CCc1ccc(-c2ccc(-c3cc(C(=O)O)c4cc(Br)ccc4n3)o2)cc1` [CBK300543], the figure is 90.6%; as for `CC1CCCN(CC(O)COCc2ccc3c(c2)OCO3)C1` (stereo not drawn) [CBK262830C], 105%. In the case of `Cc1cccc2[nH]c(-c3ccccc3)nc12` [CBK000110], the viability at 28.5 h, 10 µM was found to be 92.9%. For `Cc1nccn1C(=O)NC1CCCCC1` [CBK019187], the viability at 28.5 h, 10 µM turned out to be 81.8%.

As to `CCCc1[nH]nc(O)c1Cc1cc(F)ccc1Br` [CBK075031], the viability at 28.5 h, 10 µM was found to be 94.6%. As to `CC1CN(Cc2cccc(CNc3ncccc3C#N)c2)CCO1` (stereo not drawn) [CBK303994], the viability at 28.5 h, 10 µM came to 95.7%. On to `O=C(Cn1cccn1)NC(Cc1ccsc1)c1ccccn1` (stereo not drawn) [CBK285284], for which the viability at 28.5 h, 10 µM turned out to be 92.8%.

For the compound `CN(C)CCCN1C(=O)C(O)=C(C(=O)c2ccc(F)cc2)C1c1cccnc1` (stereo not drawn) [CBK264531], the viability at 28.5 h, 10 µM turned out to be 107%. As for `CC(C)(C)C(=O)N1CCC(c2nnc3n2CCCCC3)CC1` [CBK285311], the figure is 88.7%; as for `O=CN1CCc2c([nH]c3ccccc23)C12CCCN(CCOc1ccccc1)C2` (stereo not drawn) [CBK039412], 93.3%; as for `O=C1c2ccccc2C(=O)N1Cc1ccc(S(=O)(=O)NCc2ccc3c(c2)OCO3)cc1` [CBK264180], 98.3%.

For `Cc1cccc(-c2nc(C3CCCNC3)n3ccccc23)c1` (stereo not drawn) [CBK035528], the viability at 28.5 h, 10 µM is 92.3%. On to `Cc1cc(C)n(Cc2cccc(C(=O)NC(C)Cc3ccccn3)c2)n1` (stereo not drawn) [CBK281449], for which the viability at 28.5 h, 10 µM worked out at 102%. The result for `Cc1cc2oc(=O)c3c(c2cc1C)CCN(C)C3` [CBK017803] reads 97%; that for `Cc1cccc(C)c1-c1cn2ccnc2c(N2CCN(c3ccccn3)CC2)n1` [CBK037389], 89%. The result for `COc1ccc(C(=O)N2CCC3(CCN(C(=O)CCSC)C3)C2)cc1OC` (stereo not drawn) [CBK131786] reads 105%. In the case of `OCCNc1nc(-c2ccccc2)cn2ccnc12` [CBK066379], the viability at 28.5 h, 10 µM came to 97.6%. As for `COc1ccc(C(=O)N2CCc3ccccc32)c(OC)n1` [CBK200281], the figure is 106%; as for `O=C(Nc1ccc2cc(Br)cnc2n1)C(F)(F)F` [CBK063313], 90%. As for `Cc1cc(C)n(CC(=O)N2CCOC(c3ccccc3Cl)C2)n1` (stereo not drawn) [CBK304927], the figure is 91.9%. For `CN(C)c1nc2ccc(OCCN3CCOCC3)cc2s1` [CBK261135], the viability at 28.5 h, 10 µM was 82.5%. The result for `CCn1c(SCc2cccnc2)nc2c(c1=O)SC(C)C2` (stereo not drawn) [CBK287643] reads 87.7%. On to `N#CCCN(C(=O)Nc1ccc2c(c1)OCCO2)C1CCCCC1` [CBK156364], for which the viability at 28.5 h, 10 µM was determined as 92.3%. In the case of `Cc1nn(C)c(C)c1CN(C)C(=O)c1cc(-c2ccc(F)cc2)on1` [CBK281587], the viability at 28.5 h, 10 µM stood at 82.2%. Consider `CC1CCCN(C(=O)c2cc(-c3ccccn3)n[nH]2)C1C` (stereo not drawn) [CBK283146], for which the viability at 28.5 h, 10 µM came to 88.5%.

Turning to `COCc1nc2n(n1)CC(NC1CCc3ccccc3CC1)CC2` (stereo not drawn) [CBK304737], the viability at 28.5 h, 10 µM was determined as 96.1%.

The values are drawn from PMC12040169 (PLOS Biology, 2025).
